Measurements from PMC8968952, “Modulation of ERCC1-XPF Heterodimerization Inhibition via Structural Modification of Small Molecule Inhibitor Side-Chains” (Frontiers in Oncology, 2022).

Key:
ERCC1-XPF = biological target: T1, ERCC1-XPF (Homo sapiens, UniProt Q92889); assay: Microplate fluorescence incision assay (endonuclease activity); format: biochemical; settings: 10 μM inhibitor, 10 min preincubation
T1 construct: the final purity of the full-length ERCC1-XPF heterodimer was determined to be ~35%; His6; made in house; host or cells: E. coli BL21(DE3)
T1 sequence (Q92889 1-916): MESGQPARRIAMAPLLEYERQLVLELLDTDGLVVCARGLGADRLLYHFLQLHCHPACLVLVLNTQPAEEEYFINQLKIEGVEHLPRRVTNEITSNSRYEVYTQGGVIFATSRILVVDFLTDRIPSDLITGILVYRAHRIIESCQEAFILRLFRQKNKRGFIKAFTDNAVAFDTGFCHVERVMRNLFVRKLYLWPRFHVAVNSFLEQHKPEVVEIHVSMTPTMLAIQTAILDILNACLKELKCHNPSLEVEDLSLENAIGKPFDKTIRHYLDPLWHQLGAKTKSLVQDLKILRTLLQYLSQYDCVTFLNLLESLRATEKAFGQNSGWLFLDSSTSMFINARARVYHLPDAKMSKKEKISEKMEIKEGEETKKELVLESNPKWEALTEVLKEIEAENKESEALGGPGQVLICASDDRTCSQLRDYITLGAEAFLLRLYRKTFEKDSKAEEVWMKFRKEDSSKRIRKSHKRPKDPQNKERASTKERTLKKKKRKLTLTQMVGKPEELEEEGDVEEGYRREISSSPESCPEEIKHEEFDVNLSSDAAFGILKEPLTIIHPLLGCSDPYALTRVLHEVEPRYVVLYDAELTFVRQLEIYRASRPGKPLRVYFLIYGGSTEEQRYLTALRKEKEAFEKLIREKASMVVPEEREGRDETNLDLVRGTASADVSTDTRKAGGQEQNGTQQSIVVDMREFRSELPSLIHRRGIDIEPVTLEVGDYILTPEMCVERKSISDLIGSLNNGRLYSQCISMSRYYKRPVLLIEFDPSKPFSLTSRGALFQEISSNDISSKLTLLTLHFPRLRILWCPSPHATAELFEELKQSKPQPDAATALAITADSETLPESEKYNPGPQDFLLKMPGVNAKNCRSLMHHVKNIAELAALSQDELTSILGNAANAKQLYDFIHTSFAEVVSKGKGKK
Text: Recombinant human ERCC1–XPF wild-type protein (containing polyhistidine (His-6) tags) was expressed from a bicistronic plasmid (kindly provided by Dr. Richard Wood, University of Texas MD Anderson Cancer Center, Smithville, TX) in the E. coli BL21(DE3) strain, Following previously described procedures ([70], [78]) the proteins extracted from E. coli were eluted from a ProBond Nickel-Chelating Resin (Thermo Fisher Scientific) and then a Hi-trap heparin column (GE Healthcare). Fractions containing ERCC1–XPF were dialyzed, concentrated, and stored at −80°C in 10 mM HEPES, pH 7.4, 2.5 mM β-mercaptoethanol, 0.01% CHAPS, 0.25 mM EDTA, 50% glycerol, and 25 mM NaCl. Based on polyacrylamide gel separation and Coomassie Blue staining, the final purity of the full-length ERCC1-XPF heterodimer was determined to be ~35%.
We employed a previously described protocol ([60], [70], [78]) in which the incision of the stem–loop substrate [6-FAM-5′-[…](20T)[…]-3′-dabcyl] (100 nM in 50 mM Tris-HCl, pH 8, 20 mM NaCl, 0.5 mM DDT, and 0.75 mM MnCl2) mediated by ERCC1-XPF (25 ng) in a total volume of 20 μL at 25°C was monitored by fluorescence using a FLUOstar Optima fluorimeter (BMG Labtech) with Optima software and excitation and emission wavelengths of 485 and 520 nm, respectively, for 5.5 min. The final concentration of inhibitor in the reaction was 10 μM prepared from a 200 μM stock solution in DMSO. With a molecular weight of 151 KDa for the XPF-ERCC1 heterodimer, a concentration of 25 ng of protein in 20 µl reaction buffer and a purity of 35%, the molar concentration of the enzyme was estimated to be 2.9 nM. Data were plotted using Microsoft Excel 2016.
An in vitro fluorescence-based assay was used to assess the ability of the synthesized compounds to inhibit the endonuclease activity of ERCC1-XPF. This assay has been previously described ([60], [70], [78]) and makes use of a stem-loop DNA substrate with a 5’-FAM fluorescent dye, and a 3’-dabcyl quencher. When ERCC1-XPF can cleave the DNA substrate, a 5’-FAM containing molecule is liberated from the stem-loop (and the quencher) and the fluorescence of the solution increases. The increase of the fluorescence of the solution can be observed in Figure 3A , in the absence of any inhibitor. To determine the influence of the inhibitory compounds, the protein was preincubated for 10 minutes with 10 μM of each inhibitor prior to addition of the substrate.

HCT-116 cells [1] = assay: Clonogenic survival assay, cyclophosphamide treatment; format: cell-based, human
Method: […] The medium was then replaced with drug and inhibitor-free fresh medium. After incubation for another 9 days to allow for colony formation, the plates were stained with crystal violet, colonies were counted, and plating efficiency and surviving fraction were calculated. Data were plotted using GraphPad Prism version 5.04. software.

HCT-116 cells [2] = assay: Cellular repair of cyclobutane pyrimidine dimers (cellular NER) after UVC; format: cell-based, human; settings: 2 μM
Method: We followed the protocol of Mirzayans et al. ([79]) with minor modifications as previously described ([70]). Inhibitor compounds were dissolved in DMSO and applied to a final DMSO concentration of 0.2% in media and 0.2% DMSO was used as the vehicle control. Mouse anti-thymine dimer monoclonal antibody (cat. no. MC-062, Kamiya Biomedical Company, Seattle, WA) was used for the immunofluorescence following UVC irradiation of the cells and fluorescent microscopic evaluation and measurement of fluorescence intensity were performed using MetaXpress, version 6.2.1.704, software (Molecular Devices, Sunnyvale, California). Data were plotted using GraphPad Prism version 5.04 software.
Immunofluorescent detection of cyclobutane pyrimidine dimers (CPD) generated in the DNA of HCT-116 cells after exposure to UVC radiation was used to measure NER. Our observations that approximately 80% of CPD were removed 24 hours post irradiation in the absence of any inhibitors mirrors previous observations ([70], [79]).

HCT-116 cells [3] = assay: Clonogenic survival assay, UV treatment; format: cell-based, human; settings: 0.5 μM
Method: HCT-116 cells (100–800 cells depending on the UV dose) were plated in triplicate in 60-mm Petri dishes in DMEM/F12 medium. Following overnight attachment of the cells in a humidified atmosphere containing 5% CO2 at 37°C, the cells were treated with 0.5 μM compound 6 or 10 in DMSO (as described in section 2.7) for 4 h before the medium was removed, and the cells exposed to increasing doses (0–10 J/m^2) of UV-C radiation. The cells were then cultured for a further 24 h in the presence of inhibitor and then for an additional 9 days in the absence of inhibitor to allow for colony formation. Colonies were stained with crystal violet and counted using a Colcount instrument (Oxford Optronix, Abingdon UK) to facilitate determination of plating efficiency and surviving fraction. Data were plotted using GraphPad Prism version 5.04 software.

[4] = biological target: T2, ERCC1-XPF heterodimer in A549 cells (Homo sapiens, UniProt Q92889); parameters: method as in PMID 33399940; settings: cited from earlier work; for PLA: inhibition of the interaction between ERCC1 and XPF (in words): A549 cells treated with 20 μM cisplatin and 1 μM inhibitor
T2 construct: endogenous in cells; host or cells: A549
T2 sequence (Q92889 1-916): T1 sequence (Q92889 1-916)

In the case of `CNC(=O)C(C)(C)CN1CCN(Cc2cc(Nc3c4ccc(Cl)cc4nc4ccc(OC)cc34)ccc2O)CC1` [Compound 12], the “inhibition of ERCC1-XPF endonuclease activity (in words, vs control and 4)” value (shortened to “inhibition … (in words, vs control and 4)”) (ERCC1-XPF) was “some inhibition of ERCC1-XPF endonuclease activity”.
For `O=P1(N(CCCl)CCCl)NCCCO1` (stereo not drawn) [cyclophosphamide, reference compound], the “cell survival, cyclophosphamide alone” value (HCT-116 cells [1]; 50 μM cyclophosphamide, no inhibitor) was 91.5%.
In the case of `COc1ccc2nc3cc(Cl)ccc3c(Nc3ccc(O)c(CN4CCN(CCCN(C)C5Cc6ccccc6C5)CC4)c3)c2c1` [Compound 8], the “inhibition … (in words, vs control and 4)” value (ERCC1-XPF) was “some inhibition of ERCC1-XPF endonuclease activity”.
With `COc1ccc2nc3cc(Cl)ccc3c(Nc3ccc(O)c(CN4CCN(CCNCc5ccccc5)CC4)c3)c2c1` [Compound 10] the “inhibition … (in words, vs control and 4)” value (ERCC1-XPF) was “some inhibition of ERCC1-XPF endonuclease activity”, the “effect on CPD removal / cellular NER (in words)” value (HCT-116 cells [2]) was “no significant effect on CPD removal” and the “sensitization to UVC radiation (in words)” value (HCT-116 cells [3]) was “no sensitization of HCT-116 to UVC radiation”. The “sensitization to cyclophosphamide (in words)” value (HCT-116 cells [1]; 0.5 μM 6, 10 at 1.0 μM or 0.5 μM) was “no significant sensitization of HCT-116 cells to cyclophosphamide”.
With `COc1ccc2nc3cc(Cl)ccc3c(Nc3ccc(O)c(CN4CCN(CCNCc5cccs5)CC4)c3)c2c1` [Compound 11] the “inhibition … (in words, vs control and 4)” value (ERCC1-XPF) was “some inhibition of ERCC1-XPF endonuclease activity”.
For `CN(C)CCN1CCN(Cc2cc(Nc3c4ccc(Cl)cc4nc4ccc(O)cc34)ccc2O)CC1` [Compound 5], the “PLA: inhibition of the interaction between ERCC1 and XPF (in words)” value [4] is given as “clear inhibition of the interaction between ERCC1 and XPF” and the “PLA: disruption of ERCC1-XPF heterodimerization (in words)” value ([4]; A549 not treated with cisplatin, 1 μM inhibitor) is given as “significant disruption of ERCC1-XPF heterodimerization”.
In the case of `COCCN1CCN(Cc2cc(Nc3c4ccc(Cl)cc4nc4ccc(OC)cc34)ccc2O)CC1` [Compound 15], the “inhibition … (in words, vs control and 4)” value (ERCC1-XPF) was “some inhibition of ERCC1-XPF endonuclease activity”.
For `COc1ccc2nc3cc(Cl)ccc3c(Nc3ccc(O)c(CN4CCN(C)CC4)c3)c2c1` [Compound 1], the “PLA: inhibition of the interaction between ERCC1 and XPF (in words)” value [4] is given as “clear inhibition of the interaction between ERCC1 and XPF”.
